Values quoted from earlier work as cited in patent US8236817B2, “Polymorphs of 1-cyclopropy1-7-([s,s])-2,8-diazadicyclo[4.3.0]non-8-yl)-6-fluoro-1,4-dihydro-8-methoxy-4-oxo-3-quinoline carboxylic acid hydrochloride and methods for the preparation thereof” (Chemi S.p.A., priority 2003, dated 2012).

Details: solid form exposed to atmosphere; stated in U.S. Pat. No. 5,849,752

hygroscopicity: absorbs water from the atmosphere
SMILES: COc1c(N2C[C@@H]3CCCN[C@@H]3C2)c(F)cc2c(=O)c(C(=O)O)cn(C3CC3)c12.Cl [anhydrous form]
